Assay results as given in ChEMBL document CHEMBL1201862, “PubChem BioAssay data set” (2004).
Calls of active or inactive are those of the source.

How the values were obtained:
Cytochrome P450 2C9 = Cytochrome P450 2C9 (Homo sapiens, UniProt P11712)
Cytochrome P450 1A2 = target: T1, Cytochrome P450 1A2 (Homo sapiens, UniProt P05177);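 also: PubChem cytochrome P450 panel assay, CYP1A2 panel member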
T1 sequence (P05177 whole entry): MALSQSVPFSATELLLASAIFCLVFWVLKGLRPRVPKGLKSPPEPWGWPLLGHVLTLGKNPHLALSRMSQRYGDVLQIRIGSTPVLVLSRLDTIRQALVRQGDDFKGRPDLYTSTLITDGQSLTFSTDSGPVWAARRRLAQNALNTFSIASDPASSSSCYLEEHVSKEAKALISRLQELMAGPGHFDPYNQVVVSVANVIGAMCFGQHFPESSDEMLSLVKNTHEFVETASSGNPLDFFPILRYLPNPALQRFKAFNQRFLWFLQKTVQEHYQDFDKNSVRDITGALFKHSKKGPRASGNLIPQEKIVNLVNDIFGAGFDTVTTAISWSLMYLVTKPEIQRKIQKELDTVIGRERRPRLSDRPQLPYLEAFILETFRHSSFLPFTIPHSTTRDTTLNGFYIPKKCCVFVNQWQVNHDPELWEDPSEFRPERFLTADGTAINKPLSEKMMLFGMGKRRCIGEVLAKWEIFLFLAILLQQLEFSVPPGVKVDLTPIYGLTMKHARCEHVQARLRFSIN

[1] = CRF-BP/CRF-R2 complex antagonists, dose response, cell-based, uHTS hits, 384-well (AID 651639); type: functional, Homo sapiens; details: read-out: IC50_Mean
[2] = target: T2, Corticotropin-releasing factor receptor 2/Corticotropin-releasing factor-binding protein (Homo sapiens, UniProt P24387+Q13324); assay: activators of CRF receptor 2 with binding protein – uHTS hits, confirmation (AID 602473); type: functional; details: read-out: EC50_Mean
T2 sequence (Q13324 whole entry): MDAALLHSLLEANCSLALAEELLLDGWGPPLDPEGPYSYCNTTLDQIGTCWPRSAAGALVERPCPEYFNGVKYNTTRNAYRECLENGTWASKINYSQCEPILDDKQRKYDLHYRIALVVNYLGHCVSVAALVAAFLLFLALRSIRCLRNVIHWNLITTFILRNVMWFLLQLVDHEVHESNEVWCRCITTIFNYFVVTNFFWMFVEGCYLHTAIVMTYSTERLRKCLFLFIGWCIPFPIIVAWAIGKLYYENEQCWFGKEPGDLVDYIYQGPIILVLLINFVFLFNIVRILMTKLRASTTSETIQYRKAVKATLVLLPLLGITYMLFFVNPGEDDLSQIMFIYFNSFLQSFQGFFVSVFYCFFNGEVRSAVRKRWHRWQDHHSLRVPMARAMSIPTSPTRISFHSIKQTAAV
T2 sequence (P24387 whole entry): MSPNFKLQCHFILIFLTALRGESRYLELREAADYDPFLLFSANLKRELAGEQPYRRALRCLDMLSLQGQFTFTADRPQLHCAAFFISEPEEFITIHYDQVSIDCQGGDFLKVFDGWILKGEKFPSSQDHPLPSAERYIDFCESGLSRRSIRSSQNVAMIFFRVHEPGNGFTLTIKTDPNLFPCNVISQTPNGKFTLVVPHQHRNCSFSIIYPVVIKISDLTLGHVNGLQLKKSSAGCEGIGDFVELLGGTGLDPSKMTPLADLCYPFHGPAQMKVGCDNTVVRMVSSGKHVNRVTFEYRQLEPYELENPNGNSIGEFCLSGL

[3] = target: T2, Corticotropin-releasing factor receptor 2/Corticotropin-releasing factor-binding protein; assay: Dose Response confirmation of uHTS hits for small molecule antagonists of the CRF-binding protein and CRF-R2 receptor complex.; type: functional; details: read-out: IC50_Mean
Genome polyprotein = Genome polyprotein (dengue virus type 2, UniProt P29990); assay: Dengue-2 NS5 methyltransferase inhibitors, primary screen, biochemical, confirmation dose response (AID 588689); type: functional
Genome polyprotein, sequence (P29990 2492-3391 limits assumed): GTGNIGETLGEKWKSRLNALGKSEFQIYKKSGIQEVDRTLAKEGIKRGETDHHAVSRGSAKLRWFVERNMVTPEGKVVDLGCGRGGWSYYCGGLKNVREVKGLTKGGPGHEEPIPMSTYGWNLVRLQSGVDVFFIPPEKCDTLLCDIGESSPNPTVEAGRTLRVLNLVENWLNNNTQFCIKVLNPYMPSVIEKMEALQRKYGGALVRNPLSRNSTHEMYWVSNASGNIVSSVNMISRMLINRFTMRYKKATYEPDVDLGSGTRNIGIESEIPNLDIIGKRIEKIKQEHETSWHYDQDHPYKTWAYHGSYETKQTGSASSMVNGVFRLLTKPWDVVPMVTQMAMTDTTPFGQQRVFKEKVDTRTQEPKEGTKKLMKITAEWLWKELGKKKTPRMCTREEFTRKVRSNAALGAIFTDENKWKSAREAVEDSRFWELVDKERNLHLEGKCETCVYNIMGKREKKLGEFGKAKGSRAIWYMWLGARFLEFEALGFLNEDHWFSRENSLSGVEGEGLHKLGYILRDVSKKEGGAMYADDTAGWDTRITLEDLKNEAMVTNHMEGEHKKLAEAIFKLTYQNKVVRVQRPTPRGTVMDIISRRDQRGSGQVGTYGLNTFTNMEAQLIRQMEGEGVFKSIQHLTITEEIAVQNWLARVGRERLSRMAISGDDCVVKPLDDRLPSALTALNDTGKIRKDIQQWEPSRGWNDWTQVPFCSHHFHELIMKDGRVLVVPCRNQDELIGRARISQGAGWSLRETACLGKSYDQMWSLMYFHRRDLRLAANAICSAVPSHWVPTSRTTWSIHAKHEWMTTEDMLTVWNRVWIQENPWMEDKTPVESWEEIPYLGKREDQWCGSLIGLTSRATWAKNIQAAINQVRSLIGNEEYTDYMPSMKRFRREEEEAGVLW

Vero = Vero cell cytotoxicity, cytotoxicity control for flavivirus capping enzyme inhibitors (AID 588742); type: functional; details: Chlorocebus sabaeus
Beta-galactosidase = Beta-galactosidase (Escherichia coli, UniProt Q8VNN2); assay: PubChem AID 485352; type: functional
Beta-galactosidase, sequence (Q8VNN2 whole entry): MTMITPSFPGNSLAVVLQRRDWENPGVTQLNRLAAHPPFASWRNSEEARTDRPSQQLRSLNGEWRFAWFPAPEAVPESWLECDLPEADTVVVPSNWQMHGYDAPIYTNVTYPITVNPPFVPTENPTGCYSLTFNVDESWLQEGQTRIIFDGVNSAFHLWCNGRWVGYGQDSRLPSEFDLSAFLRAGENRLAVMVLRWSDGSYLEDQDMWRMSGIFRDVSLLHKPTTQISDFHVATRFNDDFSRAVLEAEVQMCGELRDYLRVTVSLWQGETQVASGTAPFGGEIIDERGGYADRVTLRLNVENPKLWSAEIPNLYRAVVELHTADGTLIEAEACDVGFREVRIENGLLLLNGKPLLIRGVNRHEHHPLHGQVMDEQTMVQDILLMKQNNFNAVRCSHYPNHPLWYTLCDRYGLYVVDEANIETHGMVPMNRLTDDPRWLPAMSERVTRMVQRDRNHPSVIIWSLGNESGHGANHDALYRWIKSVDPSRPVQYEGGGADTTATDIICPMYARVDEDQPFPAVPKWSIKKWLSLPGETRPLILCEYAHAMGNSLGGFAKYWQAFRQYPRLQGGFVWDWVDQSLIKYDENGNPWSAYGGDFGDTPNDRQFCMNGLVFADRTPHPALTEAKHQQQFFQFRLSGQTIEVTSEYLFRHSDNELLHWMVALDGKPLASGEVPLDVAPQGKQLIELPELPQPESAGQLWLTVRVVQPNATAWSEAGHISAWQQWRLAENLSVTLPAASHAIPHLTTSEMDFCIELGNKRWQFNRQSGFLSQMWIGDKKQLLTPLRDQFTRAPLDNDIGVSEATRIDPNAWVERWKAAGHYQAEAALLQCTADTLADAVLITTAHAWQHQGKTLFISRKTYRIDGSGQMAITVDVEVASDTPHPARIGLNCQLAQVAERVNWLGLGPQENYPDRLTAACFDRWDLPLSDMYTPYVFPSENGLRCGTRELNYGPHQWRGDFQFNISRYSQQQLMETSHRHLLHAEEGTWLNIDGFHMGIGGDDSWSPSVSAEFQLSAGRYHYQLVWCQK

[4] = target: T3, Type-1 angiotensin II receptor (Homo sapiens, UniProt P30556); assay: AT1 receptor antagonists, dose response, selectivity assay for APJ receptor antagonist project, cell-based, uHTS hits (AID 463214); type: functional;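 also: antagonist potency against angiotensin II stimulated AT1 response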
T3 sequence (P30556 whole entry): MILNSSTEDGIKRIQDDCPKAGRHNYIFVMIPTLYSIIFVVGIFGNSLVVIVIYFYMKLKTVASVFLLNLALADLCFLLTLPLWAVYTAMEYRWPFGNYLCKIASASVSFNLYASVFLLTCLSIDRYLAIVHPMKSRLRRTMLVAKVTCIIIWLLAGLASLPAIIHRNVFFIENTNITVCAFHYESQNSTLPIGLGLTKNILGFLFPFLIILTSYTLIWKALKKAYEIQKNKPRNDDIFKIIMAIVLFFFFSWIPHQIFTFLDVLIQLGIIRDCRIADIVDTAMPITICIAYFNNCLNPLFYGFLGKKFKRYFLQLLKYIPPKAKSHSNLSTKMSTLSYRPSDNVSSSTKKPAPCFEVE

HEK293 = assay: inhibitors of LMP1-driven NF-kB reporter, dose response, cell-based, HEK293, luciferase, cherry-pick (AID 588343); type: functional; details: Homo sapiens
Cytochrome P450 2D6 = Cytochrome P450 2D6 (Homo sapiens, UniProt P10635);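 also: CYP2D6 member of a cytochrome P450 panel assay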
Cytochrome P450 2D6, sequence (P10635 whole entry): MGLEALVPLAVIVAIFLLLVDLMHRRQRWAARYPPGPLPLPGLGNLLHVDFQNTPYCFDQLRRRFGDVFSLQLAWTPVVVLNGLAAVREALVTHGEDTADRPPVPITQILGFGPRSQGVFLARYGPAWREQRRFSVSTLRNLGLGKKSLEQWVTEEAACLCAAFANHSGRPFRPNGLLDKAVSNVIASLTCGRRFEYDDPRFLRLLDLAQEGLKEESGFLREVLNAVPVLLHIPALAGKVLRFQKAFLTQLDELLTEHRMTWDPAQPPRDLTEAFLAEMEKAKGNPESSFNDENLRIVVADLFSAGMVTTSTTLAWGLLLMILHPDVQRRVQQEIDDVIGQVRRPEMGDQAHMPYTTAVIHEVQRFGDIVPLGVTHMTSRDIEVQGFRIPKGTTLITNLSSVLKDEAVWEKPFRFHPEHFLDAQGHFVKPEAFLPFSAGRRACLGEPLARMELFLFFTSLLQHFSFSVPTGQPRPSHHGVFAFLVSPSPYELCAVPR

Estrogen receptor = target: T4, Estrogen receptor (Homo sapiens, UniProt P03372);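 also: potency for inhibiting coactivator peptide recruitment to the receptor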
T4 sequence (P03372 whole entry): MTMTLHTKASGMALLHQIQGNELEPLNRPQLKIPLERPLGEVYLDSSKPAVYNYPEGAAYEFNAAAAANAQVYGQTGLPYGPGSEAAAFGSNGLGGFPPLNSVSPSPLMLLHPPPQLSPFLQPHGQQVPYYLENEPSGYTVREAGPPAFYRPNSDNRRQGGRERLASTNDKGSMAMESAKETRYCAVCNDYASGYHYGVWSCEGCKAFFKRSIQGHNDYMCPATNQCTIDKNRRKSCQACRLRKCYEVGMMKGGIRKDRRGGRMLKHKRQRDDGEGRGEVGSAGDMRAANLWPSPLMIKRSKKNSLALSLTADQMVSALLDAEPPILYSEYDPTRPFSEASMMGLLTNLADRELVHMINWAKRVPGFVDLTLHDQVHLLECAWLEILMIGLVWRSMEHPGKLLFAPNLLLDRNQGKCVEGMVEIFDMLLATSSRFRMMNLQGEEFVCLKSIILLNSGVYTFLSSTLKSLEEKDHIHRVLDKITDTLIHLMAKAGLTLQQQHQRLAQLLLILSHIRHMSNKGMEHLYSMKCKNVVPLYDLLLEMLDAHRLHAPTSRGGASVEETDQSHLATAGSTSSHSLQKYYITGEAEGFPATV

[5] = test system: Streptococcus sp. 'group A'; assay: growth inhibition of control SK(-) GAS strain, dose response, counter-screen for streptokinase expression inhibitor project, luminescence, kanamycin, BacTiterGlo, confirmation (AID 1900); type: functional, organism-based
Streptococcus = assay: Group A Streptococcus viability loss, dose response, counter-screen for streptokinase expression inhibitor project, luminescence, BacTiterGlo (AID 1915); type: functional, organism-based;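 also: potency for reduction of bacterial viability or growth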
Streptokinase A = target: T5, Streptokinase A (Streptococcus pyogenes serotype M1, UniProt P10520); assay: S. pyogenes streptokinase expression inhibitors, potency, dose response, plasminogen activation absorbance, OD405 (AID 1914); type: functional, Streptococcus pyogenes M1 GAS;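 also: secreted streptokinase activity via plasminogen activation per viability signal from cell pellet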
T5 sequence (P10520 whole entry): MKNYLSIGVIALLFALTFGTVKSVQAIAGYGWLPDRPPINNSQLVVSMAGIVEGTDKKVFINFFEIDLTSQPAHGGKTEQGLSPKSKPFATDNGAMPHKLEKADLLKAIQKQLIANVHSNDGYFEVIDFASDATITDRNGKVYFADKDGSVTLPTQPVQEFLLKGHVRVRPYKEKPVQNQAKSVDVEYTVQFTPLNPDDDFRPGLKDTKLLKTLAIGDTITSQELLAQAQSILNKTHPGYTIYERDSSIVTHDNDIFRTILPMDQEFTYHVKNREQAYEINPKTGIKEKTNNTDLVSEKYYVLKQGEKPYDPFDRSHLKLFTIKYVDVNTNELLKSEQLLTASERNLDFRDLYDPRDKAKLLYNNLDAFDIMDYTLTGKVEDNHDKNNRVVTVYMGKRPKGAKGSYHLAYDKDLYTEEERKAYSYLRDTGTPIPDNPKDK

BJ [6] = assay: cytotoxicity toward BJ-TERT fibroblasts, dose response, cell-based, RAS-independent, luminescence (AID 1933); type: functional; details: Homo sapiens
BJ [7] = assay: cytotoxicity toward BJ-TERT-LT-ST fibroblasts, dose response, cell-based, RAS-independent, luminescence (AID 1935); type: functional; details: Homo sapiens;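 also: BJ fibroblasts immortalized with TERT plus LT and ST oncogenes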
[8] = cytotoxicity toward DRD oncogenic fibroblasts, dose response, cell-based, non-viral oncogenic, luminescence (AID 1934); type: functional; details: Homo sapiens
BJ [9] = assay: cells; type: functional, cell-based; details: Homo sapiens
[10] = target: NAD-dependent protein deacylase sirtuin-5, mitochondrial (Homo sapiens, UniProt Q9NXA8); assay: SIRT5 desuccinylase inhibitors, dose response, biochemical, fluorescence imaging, cherry-pick, set 5 (AID 720591);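 also: desuccinylation of succinyl peptide AMC substrate read as fluorescence after trypsin release; potency of inhibitors that lower fluorescence and may act on trypsin instead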
NAD-dependent protein deacylase sirtuin-5, mitochondrial, sequence (Q9NXA8 whole entry): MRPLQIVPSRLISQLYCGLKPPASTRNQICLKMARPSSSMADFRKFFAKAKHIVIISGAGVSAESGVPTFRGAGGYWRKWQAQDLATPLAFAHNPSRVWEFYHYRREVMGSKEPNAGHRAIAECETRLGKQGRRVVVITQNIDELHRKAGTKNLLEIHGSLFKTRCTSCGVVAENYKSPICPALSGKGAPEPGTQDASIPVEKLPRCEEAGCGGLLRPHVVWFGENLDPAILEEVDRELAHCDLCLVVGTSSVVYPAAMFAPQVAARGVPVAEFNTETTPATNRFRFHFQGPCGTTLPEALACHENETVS

[11] = target: T6, Rac GTPase-activating protein 1 (Homo sapiens, UniProt Q9H0H5); assay: MgcRacGAP GTPase-activating activity inhibitors, confirmation, biochemical, ADP Hunter fluorescence, primary and confirmatory (AID 624330); type: functional
T6 sequence (Q9H0H5 whole entry): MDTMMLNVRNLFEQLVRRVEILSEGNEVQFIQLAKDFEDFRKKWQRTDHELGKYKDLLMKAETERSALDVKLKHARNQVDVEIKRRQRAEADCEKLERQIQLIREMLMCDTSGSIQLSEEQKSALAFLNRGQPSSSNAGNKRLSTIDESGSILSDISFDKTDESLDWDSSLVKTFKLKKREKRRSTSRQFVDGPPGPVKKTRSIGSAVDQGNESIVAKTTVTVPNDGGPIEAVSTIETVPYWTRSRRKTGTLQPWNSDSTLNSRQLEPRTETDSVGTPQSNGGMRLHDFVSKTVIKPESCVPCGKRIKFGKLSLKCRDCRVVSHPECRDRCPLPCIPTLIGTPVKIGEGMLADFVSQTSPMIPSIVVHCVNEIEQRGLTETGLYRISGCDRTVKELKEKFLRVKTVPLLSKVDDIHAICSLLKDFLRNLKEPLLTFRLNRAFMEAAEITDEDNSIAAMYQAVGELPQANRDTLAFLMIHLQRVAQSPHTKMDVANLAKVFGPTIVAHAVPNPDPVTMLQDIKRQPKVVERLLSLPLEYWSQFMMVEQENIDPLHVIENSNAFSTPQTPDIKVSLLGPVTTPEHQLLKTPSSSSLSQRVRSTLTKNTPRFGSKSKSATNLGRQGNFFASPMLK

Cytochrome P450 2C9, sequence (P11712 whole entry): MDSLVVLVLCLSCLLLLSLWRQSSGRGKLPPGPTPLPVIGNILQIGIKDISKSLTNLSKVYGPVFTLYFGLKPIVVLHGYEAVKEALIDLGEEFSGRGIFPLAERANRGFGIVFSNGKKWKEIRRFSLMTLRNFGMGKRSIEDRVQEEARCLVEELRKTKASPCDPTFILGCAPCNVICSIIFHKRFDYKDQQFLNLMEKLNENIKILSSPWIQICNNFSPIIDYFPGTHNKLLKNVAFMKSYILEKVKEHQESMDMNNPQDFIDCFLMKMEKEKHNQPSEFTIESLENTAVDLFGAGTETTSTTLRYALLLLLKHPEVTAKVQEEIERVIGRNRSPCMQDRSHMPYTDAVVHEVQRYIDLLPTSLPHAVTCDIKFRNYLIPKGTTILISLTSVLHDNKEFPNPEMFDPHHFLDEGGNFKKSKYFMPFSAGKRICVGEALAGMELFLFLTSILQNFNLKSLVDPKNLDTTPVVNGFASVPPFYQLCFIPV

O=C(c1coc(=O)c2ccccc12)N1CCN(Cc2ccccc2)CC1
AC50 (Cytochrome P450 2C9): inconclusive
AC50 (Cytochrome P450 1A2): 10 µM (inconclusive)

Cc1nn(Cc2ccccc2)c(Cl)c1C(=O)NC1CCCc2ccccc21 (centres undefined)
IC50 [1]: 11.9 µM (active)
EC50 [2]: > 53 µM (inactive)
IC50 [3]: 6.77 µM (active)

CCOC(=O)c1sc(N2N=C(C)/C(=C\c3ccc(OCC(=O)OC)cc3)C2=O)nc1C
IC50 (Genome polyprotein): 90.7 µM (active)
CC50 (Vero): 39.2 µM (active)

CCCCNC(=S)NNC(=O)CCn1nc(C)c(Br)c1C
AC50 (Cytochrome P450 2C9): inconclusive
EC50 (Beta-galactosidase): > 40 µM (inactive)
IC50 [4]: > 40 µM (not active)

CN(C)c1ccnc2sc(C(N)=O)c(N)c12
AC50 (HEK293): 3.08 µM (active)

Clc1ccccc1NN(Cc1ccncc1)c1ccccc1Cl
IC50 [1]: > 20 µM (inactive)
AC50 (Cytochrome P450 2D6): 3.16 µM (inconclusive)
EC50 [2]: > 53 µM (inactive)
IC50 [3]: < 0.368 µM (active)

Cc1nn(Cc2ccc(C(=O)Nc3nc4c(C)cccc4s3)o2)c(C)c1Br
IC50 (Estrogen receptor): > 50 µM (not active)
EC50 [5]: 4.94 µM (active)
EC50 (Streptococcus): 8.54 µM (active)
EC50 (Streptokinase A): 5.58 µM (active)

CC(C)OC(=O)c1ccccc1C(=O)c1ccc(N)c([N+](=O)[O-])c1
EC50 (BJ [6]): > 150 µM (not active)
IC50 [1]: > 20 µM (inactive)
EC50 (BJ [7]): > 150 µM (not active)
EC50 [8]: > 150 µM (not active)
EC50 (BJ [9]): > 150 µM (not active)
EC50 [2]: > 53 µM (inactive)
IC50 [3]: 38.6 µM (active)

COc1ccc(C(=O)Nc2cc(O)nc3ncnn23)cc1
AC50 [10]: 8.75 µM (active)

C=CCc1cc(OC)ccc1OCCN1CC(C)OC(C)C1 (centres undefined)
AC50 [10]: > 30 µM (inactive)
IC50 [11]: 70.5 µM (active)
